{
  "source": "patent US7803930B2",
  "about": "“Antisense modulation of apolipoprotein B-expression” (Isis Pharmaceuticals, Inc., priority 2002, dated 2010)",
  "key": {"[1]": {"tested_on": "mouse apolipoprotein B mRNA", "assay": "Inhibition of mouse apolipoprotein B mRNA levels in primary mouse hepatocytes, real-time PCR", "assay_type": "cell-based", "method_in_brief": "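Primary CD-1 mouse hepatocytes transfected at 80% confluency with oligonucleotide plus 3.75 μg/mL LIPOFECTIN for 4-7 h, harvested 16-24 h after treatment. ApoB mRNA measured by real-time quantitative PCR against a standard curve of untreated-control mRNA, giving percent inhibition; GAPDH primers/probe also used.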"}, "apolipoprotein B mRNA": {"tested_on": "apolipoprotein B mRNA", "assay": "ApoE knockout mice (Example 28): target mRNA levels in liver", "assay_type": "in vivo, mouse", "conditions": "high fat diet, six weeks", "text": "Female ApoE knockout mice ranged in age from 5 to 7 weeks and were placed on a normal diet for 2 weeks before study initiation. ApoE knockout mice were then fed ad libitum a 60% fat diet, with 0.15% added cholesterol to induce dyslipidemia and obesity. Control animals were maintained on a high-fat diet with no added cholesterol. […]\nAt study termination and forty eight hours after the final injections, animals were sacrificed and evaluated for target mRNA levels in liver by RT-PCR methods verified by Northern Blot analysis, glucose levels, cholesterol and lipid levels by HPLC separation methods and triglyceride and liver enzyme levels (performed by LabCorp Preclinical Services; San Diego, Calif.).\nData are normalized to saline controls."}, "[2]": {"assay": "High fat fed C57BL/6 mice, 6 week timecourse: serum AST and ALT levels", "assay_type": "in vivo, mouse", "conditions": "for ALT levels: 6 weeks (saline control 25 IU/L); for AST levels: 6 weeks (saline control 65 IU/L)", "description": "Male C57BL/6 mice (n=8) receiving a high fat diet (60% kcal fat) were evaluated over the course of 6 weeks for the effects of ISIS 147764 on liver enzyme (AST and ALT) levels. Increased levels of the liver enzymes ALT and AST indicate toxicity and liver damage. Control animals received saline treatment (50 mg/kg). […] AST and ALT levels were measured at 6 weeks."}, "[3]": {"tested_on": "human apolipoprotein B protein", "assay": "Apolipoprotein B protein in primary human hepatocytes, immunoblot", "assay_type": "cell-based", "conditions": "50, 150 and 300 nM, 24 hours, 48 hours", "description": "Protein samples from 50, 150 and 300 nM doses after 24 hours and 150 and 300 nM doses after 48 hours were subjected to immunoblot analysis as described by other examples herein, using a human apolipoprotein B protein specific antibody purchased from US Biological (Swampscott, Mass.)."}, "apolipoprotein B protein": {"tested_on": "apolipoprotein B protein", "assay": "Apolipoprotein B protein in primary Cynomolgous monkey hepatocytes, immunoblot", "assay_type": "cell-based", "description": "Additionally, protein was isolated from oligonucleotide-treated primary Cynomolgous monkey hepatocytes and subjected to immunoblot analysis to further assess apolipoprotein B protein expression. Immunoblotting was performed as described herein, using an antibody to human apolipoprotein B protein (US Biologicals, Swampscott, Mass.)."}, "[4]": {"tested_on": "mouse apolipoprotein B protein", "assay": "Transgenic mice dosing study (Example 52): immunoblot of mouse apolipoprotein B protein in serum and liver", "assay_type": "in vivo"}},
  "note": "In the oligonucleotide strings, read from the 5' end, every base follows the letter of its sugar. An asterisk marks phosphorothioate; unmarked linkages are phosphodiester. Other units and linkages are bracketed, terminal groups are in braces. A string of capitals states the bases alone. e = 2'-O-(2-methoxyethyl) (MOE); [5mC] = 5-methylcytosine; d = 2'-deoxy (DNA)",
  "data": [
    {"substance": "147764 (eG*eT*e[5mC]*e[5mC]*e[5mC]*dT*dG*dA*dA*dG*dA*dT*dG*dT*d[5mC]*eA*eA*eT*eG*e[5mC]) [compound 147764]", "values": [
      {"measurement": "% INHIB", "setting": "[1]; Table 3, 150 nM, averages from two experiments", "value": 97, "unit": "%"},
      {"measurement": "Percent Inhibition 50 nM", "setting": "[1]; Table 4, 50 nM", "value": 48, "unit": "%"},
      {"measurement": "Percent Inhibition 150 nM", "setting": "[1]; Table 4, 150 nM", "value": 84, "unit": "%"},
      {"measurement": "Percent Inhibition 300 nM", "setting": "[1]; Table 4, 300 nM", "value": 90, "unit": "%"}
    ]},
    {"substance": "GTCCCTGAAGATGTCAATGC (2'-MOE gapmer, further chemistry not given here) [ISIS 147764]", "values": [
      {"measurement": "mRNA Percent Inhibition", "setting": "apolipoprotein B mRNA; 5 mg/kg i.p. every three days", "value": 2, "unit": "%"},
      {"measurement": "mRNA Percent Inhibition", "setting": "apolipoprotein B mRNA; 25 mg/kg i.p. every three days", "value": 42, "unit": "%"},
      {"measurement": "mRNA Percent Inhibition", "setting": "apolipoprotein B mRNA; 50 mg/kg i.p. every three days", "value": 70, "unit": "%"},
      {"measurement": "ALT levels", "setting": "[2]; 5 mg/kg", "value": 50, "unit": "IU/L"},
      {"measurement": "AST levels", "setting": "[2]; 5 mg/kg", "value": 105, "unit": "IU/L"},
      {"measurement": "ALT levels", "setting": "[2]; 25 mg/kg", "value": 70, "unit": "IU/L"},
      {"measurement": "AST levels", "setting": "[2]; 25 mg/kg", "value": 70, "unit": "IU/L"},
      {"measurement": "ALT levels", "setting": "[2]; 50 mg/kg", "value": 100, "unit": "IU/L"},
      {"measurement": "AST levels", "setting": "[2]; 50 mg/kg", "value": 80, "unit": "IU/L"}
    ]},
    {"substance": "ISIS 301012: SEQ ID NO: 247, antisense oligonucleotide targeted to human apolipoprotein B (antisense GCCTCAGTCTGCTTCGCACC; chemistry not given here)", "values": [
      {"measurement": "apolipoprotein B protein in human hepatocytes (immunoblot)", "setting": "[3]", "value": "reduced in a dose-dependent manner"},
      {"measurement": "apolipoprotein B expression (immunoblot)", "setting": "apolipoprotein B protein", "value": "substantial reduction"},
      {"measurement": "expression of the mouse apolipoprotein B protein in liver (immunoblot)", "setting": "[4]", "value": "does not change significantly"},
      {"measurement": "expression of the mouse apolipoprotein B protein in serum (immunoblot)", "setting": "[4]", "value": "no significant change"}
    ]}
  ]
}
